“Also recorded” adds a separate entry of the source.
Columns and labels:
[1] = test system: CD-1 (ICR) mice; assay: Locomotor activity in mice, intraperitoneal; assay type: in vivo; details: i.p.; nepicastat 3-100, SKF-102698 30 and 100, cocaine 30 mg/kg
Description: Adult male CD-1 (ICR) mice (30-40 g on study day) were housed in groups of eight under a normal light/dark cycle with lights on between 0900 hr and 2100 hr. Food and water were allowed ad libitum. All animals were naive to drug treatment and behavioral testing. Each animal was only used once.
Locomotor activity was monitored in an automated 14 station activity monitoring system (San Diego Instrument Co.). Each station consisted of a clear perspex cage (25 cm×45 cm×20 cm; w×1×h) placed within a metal frame containing 3 photoemmitors and 3 photodetectors spaced equally along the length of the wall. The bottom of each cage was lightly covered in clean cedar bedding.
The mice were placed in the testing room at least 1 hr prior to testing. The mice were placed individually into one of the activity cages and allowed to explore for 30 min. […] Following a 60 minute pre-treatment period, motor activity was monitored for 180 minutes. Activity counts and ambulations (defined as a break of 2 consecutive photobeams) for each animal were recorded every 30 minutes.
A repeated measures two-way analysis of variance (ANOVA) was performed using the overall ranked data (nonparametric technique) to test for the overall effects of treatment, time interval and treatment by time interval interaction. […]

[2] = test system: short-term or working memory in rats; assay: Delayed-matching-to-position (DMTP) test; assay type: in vivo, Sprague Dawley rats
Protocol: In the present DMTP study, rats were trained to remember the position of a lever across a scheduled delay of either 0, 8, 16 or 32 s in order to earn food reward. […] Another group of rats received only vehicle treatment throughout the experiment. […] The dependent measures in the present study included percentage of correct choices, the latency to make choice responses and the number of trials which the animals were able to complete during the 70 min test sessions. Changes in the former measure may indicate changes in memory and/or attentional function whereas changes in the latter two measures may be indicative of other non-cognitive effects of the drugs. Matching to position training began next. This and all subsequent training was conducted with the partitions fitted into the operant boxes. The sessions were initially 50 minutes long. Rats were placed in the operant box and the session began when the houselight was illuminated. Following a 30 s intertrial interval (ITI), one of the two levers (the sample lever) was inserted into the chamber. The lever remained inserted into the chamber until a lever-press response occurred. […] As soon as the magazine flap was pressed the magazine light was extinguished and both levers were inserted. […] The magazine light remained on until the flap was pressed. […] A 30 s ITI was initiated before the commencement of a new trial. The lever inserted as the sample lever was semi-randomly determined such that the right and lefthand levers were presented as the sample lever 8 times in a block of 16 trials. Following 24 sessions, the animals were performing the matching to position task with a high degree of accuracy. On Session 25 a variable delay interval was interposed between the depression of the sample lever and presentation of the levers on the choice trial. After a response to the sample lever, the choice levers were inserted following the first flap press occurring after either a 0 s (immediate), 4, 8 or 16 s delay. The order of the four types of trials (0, 4, 8 or 16 s delay) was semi-randomly determined with the constraint that in a 16 trial block, each delay occurred 4 times; twice on a left trial and twice on a right trial. […] The same trial was reinstated following the end of the ITI. From Session 25 onward the time-out period following incorrect choices was omitted and the session length was increased to 70 minutes. […] Due to poor performance at the 64 s delay, however, this delay was not used in any further sessions. On Session 59, delays of 0, 8, 16 and 32 s were used. These delays were used in all subsequent sessions. Only 51 of the 56 rats completed more than 24 trials (correction plus non-correction) during Session 59. These rats were selected and semi-randomly assigned to the following 7 groups such that the groups were matched on performance (percent correct, response latency and number of trials completed): […] Thus, the drug treatments administered to the seven groups during the 11 consecutive days of the present experiment were: The data collected and analyzed in the present DMTP study include 1) the percentage of correct responses; 2) the latency between performance of a response to the sample lever and the performance of the choice response and 3) the total number of correction and non-correction trials completed. The former two dependent measures were collected for the non-correction trials only. […] Two-way analysis of variance (ANOVA) with drug treatment as the between-subjects factor and delay (0, 8, 16 or 32 s) as the within-subjects factor was used to analyze percentage of correct choices and response latency. These analyses were conducted separately for each block of data. Significant interactions were followed by a one-way ANOVA which was conducted at each delay. A significant main effect from a one-way ANOVA was followed by a two-tailed Dunnett's t-test. One-way ANOVA followed by a post hoc Dunnett's test, when appropriate, was used to analyze the mean number of trials completed. […]

[3] = test system: anesthetized SHRs; assay: Acute i.v. treatment of anesthetized SHRs, blood pressure and renal function; assay type: in vivo, spontaneously hypertensive rats; details: 3.0 mg/kg i.v.
Description: The calculated renal vascular resistance was decreased following dosing. An attempt was made using the DA-1 antagonist SCH-23390 to assess if the renal vasodilator effects of nepicastat were mediated by DA-1 receptors.

[4] = test system: SHRs; assay: 30-day radio-telemetry study in SHRs; details: for blood pressure: hydrochloride
[5] = test system: tissue norepinephrine and dopamine levels; assay: Tissue catecholamines in SHRs after single dose (dose response, time course); assay type: in vivo, spontaneously hypertensive rats; details: 6.2 mg/kg oral or i.v., 0.5 to 4 hours
[6] = test system: aortic contractile response to phenylephrine; assay: Aortic contractile response in vitro to phenylephrine after 21 days treatment; assay type: in vivo, spontaneously hypertensive rats; details: 10 mg/kg p.o. daily for 21 days
Description: The aortic contractile response in vitro to phenylephrine is impaired in spontaneously hypertensive rats (SHRs) relative to normotensive Wistar-Kyoto rats.

[7] = target: protein kinase (non-selective); assay: Enzyme selectivity assay; assay type: biochemical

SMILES: Fc1cc(F)cc(Cn2cc[nH]c2=S)c1 [SKF-102698, reference compound]
- total activity counts and ambulations vs vehicle [1]: no significant differences; also recorded: no significant effects

SMILES: Cl.NCc1c[nH]c(=S)n1[C@H]1CCc2c(F)cc(F)cc2C1 [nepicastat, (S)-5-Aminomethyl-1-(5,7-difluoro-1,2,3,4-tetrahydronaphth-2-yl)-2,3-dihydro-2-thioxo-1H-imidazole hydrochloride]
- all dependent measures ([2]; Block 2): no significant effects on any of the dependent measures
- latency to perform the choice response vs vehicle ([2]; Block 4, 32 s delay, nepicastat 10.0 mg/kg): longer latency to perform the choice response
- response latency, number of trials completed ([2]; Block 5): did not significantly affect
- choice accuracy ([2]; Block 5, 10 and 30 mg/kg at the 32 s delay): marked dose- and delay-dependent impairment in choice accuracy
- improvement of DMTP performance ([2]; administered alone, 10 days): does not appear to induce memory enhancing effects
- reversal of the effects of scopolamine ([2]; day 11 scopolamine test): did not appear to reverse the effects of scopolamine
- days of dosing after which memory-disrupting effects are apparent ([2]; rat, in vivo): 8 days
- calculated renal vascular resistance [3]: decreased
- renal blood flow, urine production, sodium and potassium excretion [3]: did not lower renal blood flow or alter urine production or urinary excretion of sodium or potassium
- mean arterial pressure ([3]; over 3 hours): decreased mean arterial pressure
- peak decrease in mean blood pressure ([4]; 30 mg/kg/d, day 3): −20 mmHg
- peak antihypertensive response on day 1 ([4]; 100 mg/kg, 21 hr after dosing): −29 mmHg
- blood pressure ([4]; 3 and 10 mg/kg/d for 30 days): no significant effects; also recorded: did not significantly affect blood pressure
- persistence of blood pressure effect after a single dose ([4]; 30 and 100 mg/kg/d): 24 h
- blood pressure ([4]; 30 and 100 mg/kg/d for 30 days): significantly lowered blood pressure; also recorded: significantly reduced blood pressure
- antihypertensive effect of mono-administration ([4]; enalapril 1 mg/kg or nepicastat 30 mg/kg (Series III)): only a small antihypertensive effect
- relation of deaths to treatment ([4]; four deaths in four series): appeared unrelated to the treatment of nepicastat
- cardiac hypertrophy / left ventricular mass ([4]; nepicastat 3-100 mg/kg): did not affect the cardiac hypertrophy
- mesenteric artery catecholamines [5]: significantly decreased norepinephrine and increased dopamine and the dopamine/norepinephrine ratio
- phenylephrine responsiveness of aorta [6]: restored phenylephrine responsiveness
- IC50 [7]: > 10 µM

Reference: patent publication US10561638B2, “Methods for treating dependence” (Biotie Therapies, Inc., priority 2007, dated 2020)
